From US20050075375A1 (priority 2003, published 2005)
Like-named read-outs stand apart in the source and are kept apart here.

System: monocistronic NK5.1 HCV replicon in Huh7 cells
Experiment: HCV replicon assay, monocistronic replicon cell line
Format: cell-based, hepatitis C virus
Details: Hepatitis C virus, read-out: Mono EC50 Median
Summary of the method: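 EC50 derives from the HCV RNA/GAPDH RNA ratio by one-step TaqMan RT-PCR, relative to DMSO-only wells. Compounds (six half-log concentrations, 0.6% DMSO) were incubated 3 days at 37 °C with NK5.1 monocistronic replicon Huh7 cells plated a day earlier.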

[1] = Huh-7, 72 h, Table 1, monocistronic replicon in Huh7 cells, 3 days incubation, HCV RNA/GAPDH RNA by TaqMan RT-PCR
[2] = Huh-7, monocistronic NK5.1 HCV replicon in Huh7 cells, median value
[3] = Huh-7, 72 h, table T3 (compounds 471-640), monocistronic replicon in Huh7 cells, 3 days incubation, HCV RNA/GAPDH RNA by TaqMan RT-PCR

Row | SMILES | EC50 [1] [µM] | EC50 [2] [µM] | EC50 [3] [µM]
1 | Oc1ccc2ccccc2c1-c1nc(-c2ccccc2)no1 [Compound 135, 1-(3-Phenyl-[1,2,4]oxadiazol-5-yl)-naphthalen-2-ol] | > 32 | – | –
2 | COc1cccc(OCc2ccccc2)c1-c1ccn(-c2ccccn2)n1 [Compound 96, 2-[3-(2-Benzyloxy-6-methoxy-phenyl)-pyrazol-1-yl]-pyridine] | 8.6 | – | –
3 | Oc1cc(OCc2ccccc2)ccc1-c1nc(-c2nccc3ccccc23)n[nH]1 [Compound 373, 5-Benzyloxy-2-(5-isoquinolin-1-yl-2H-[1,2,4]triazol-3-yl)-phenol] | – | > 19 | –
4 | COc1ccc(-c2ccn(-c3ccccn3)n2)c(O)c1 [Compound 88, 5-Methoxy-2-(1-pyridin-2-yl-1H-pyrazol-3-yl)-phenol] | > 32 | – | –
5 | COc1cccc(-c2nc(-c3ncccc3C(F)(F)F)n[nH]2)c1 [Compound 547, 2-[5-(3-Methoxy-phenyl)-1H-[1,2,4]triazol-3-yl]-3-trifluoromethyl-pyridine] | – | – | > 19
6 | Oc1ccc(O)c(-c2nc(-c3ccc(C(F)(F)F)cn3)no2)c1 [Compound 217, 2-[3-(5-Trifluoromethyl-pyridin-2-yl)-[1,2,4]oxadiazol-5-yl]-benzene-1,4-diol] | 2.1 | 2.1 | –
7 | Oc1ccccc1-c1nc(-c2ncccc2Br)n[nH]1 [Compound 495, 2-[5-(3-Bromo-pyridin-2-yl)-2H-[1,2,4]triazol-3-yl]-phenol] | – | – | 15
8 | Oc1ccc(Cl)cc1-c1nc(-c2ncccn2)n[nH]1 [Compound 563, 4-Chloro-2-(5-pyrimidin-2-yl-2H-[1,2,4]triazol-3-yl)-phenol] | – | – | 6.4
9 | Oc1ccc2ccccc2c1-c1nnc(-c2ncccc2C(F)(F)F)o1 [Compound 338, 1-[5-(3-Trifluoromethyl-pyridin-2-yl)-[1,3,4]oxadiazol-2-yl]-naphthalen-2-ol] | – | > 19 | –
10 | Oc1cc(OCc2ccccc2)ccc1-c1nc(-c2ccc(C(F)(F)F)cn2)n[nH]1 [Compound 513, 5-Benzyloxy-2-[5-(5-trifluoromethyl-pyridin-2-yl)-2H-[1,2,4]triazol-3-yl]-phenol] | – | – | > 19
11 | Cc1cccnc1-c1n[nH]c(-c2cccc([N+](=O)[O-])c2)n1 [Compound 454, 3-Methyl-2-[5-(3-nitro-phenyl)-1H-[1,2,4]triazol-3-yl]-pyridine] | – | 24 | –
12 | COc1ccc(-c2nc(-c3ncccc3C)nn2C)c(O)c1 [Compound 613, 5-Methoxy-2-[2-methyl-5-(3-methyl-pyridin-2-yl)-2H-[1,2,4]triazol-3-yl]-phenol] | – | – | 6.4
